Nine molecules from patent US9096624B2 (OSI Pharmaceuticals, LLC, priority 2009, dated 2015) can be followed below.

The target of the assay is FAK (Homo sapiens, UniProt Q05397). The assay is described as follows: biochemical.
Chain of FAK (Q05397 whole entry): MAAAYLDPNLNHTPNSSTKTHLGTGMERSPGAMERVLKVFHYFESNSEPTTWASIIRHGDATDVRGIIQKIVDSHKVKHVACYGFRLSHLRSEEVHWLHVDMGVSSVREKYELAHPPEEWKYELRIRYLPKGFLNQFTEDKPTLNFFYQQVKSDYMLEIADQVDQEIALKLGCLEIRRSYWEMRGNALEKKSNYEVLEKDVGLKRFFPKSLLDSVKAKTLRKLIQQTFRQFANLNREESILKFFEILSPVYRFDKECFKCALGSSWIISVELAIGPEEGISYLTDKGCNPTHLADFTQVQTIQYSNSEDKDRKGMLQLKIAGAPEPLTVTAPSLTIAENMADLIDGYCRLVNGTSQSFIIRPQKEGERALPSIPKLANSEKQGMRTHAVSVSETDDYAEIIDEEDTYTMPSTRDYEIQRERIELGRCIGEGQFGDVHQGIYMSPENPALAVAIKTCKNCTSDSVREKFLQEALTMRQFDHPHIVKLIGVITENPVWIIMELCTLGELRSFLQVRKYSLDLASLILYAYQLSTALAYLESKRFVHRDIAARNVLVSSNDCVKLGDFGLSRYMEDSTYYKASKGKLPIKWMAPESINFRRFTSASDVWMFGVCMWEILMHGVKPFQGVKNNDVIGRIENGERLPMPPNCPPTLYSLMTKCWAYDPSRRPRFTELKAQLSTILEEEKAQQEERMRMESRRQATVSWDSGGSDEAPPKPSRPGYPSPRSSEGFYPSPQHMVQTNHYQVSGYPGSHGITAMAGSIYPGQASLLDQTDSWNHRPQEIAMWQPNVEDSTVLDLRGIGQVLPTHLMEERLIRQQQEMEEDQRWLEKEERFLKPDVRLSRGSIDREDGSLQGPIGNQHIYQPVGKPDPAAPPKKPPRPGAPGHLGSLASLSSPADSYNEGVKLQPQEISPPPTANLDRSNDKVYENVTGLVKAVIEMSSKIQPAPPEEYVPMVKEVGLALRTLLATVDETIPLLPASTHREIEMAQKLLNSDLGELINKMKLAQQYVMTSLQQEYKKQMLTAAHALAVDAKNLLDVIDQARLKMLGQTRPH
Regarding `CCOP(=O)(Cc1ccc(Nc2ncc(C(F)(F)F)c(Nc3ccc(OC(C)C)c4c3C(=O)N(C)C4)n2)c(OC)c1)OCC` [Example 211, Diethyl (3-methoxy-4-{[4-{[2-methyl-3-oxo-7-(propan-2-yloxy)-2,3-dihydro-1H-isoindol-4-yl]amino}-5-(trifluoromethyl)pyrimidin-2-yl]amino}benzyl)phosphonate], the IC50 was < 1000 nM.
On to `CCOP(=O)(Cc1ccc(Nc2ncc(C(F)(F)F)c(Nc3ccc(N4CCS(=O)(=O)CC4)c4c3C(=O)N(C)C4)n2)cc1)OCC` [Example 212, Diethyl (4-{[4-{[7-(1,1-dioxidothiomorpholin-4-yl)-2-methyl-3-oxo-2,3-dihydro-1H-isoindol-4-yl]amino}-5-(trifluoromethyl)pyrimidin-2-yl]amino}benzyl)phosphonate], for which the IC50 was < 1000 nM.
As to `CCOP(=O)(Cc1ccc(Nc2ncc(C(F)(F)F)c(Nc3ccc(N4CCOCC4)c4c3C(=O)N(C)C4)n2)c(OC)c1)OCC` [Example 215, Diethyl (3-methoxy-4-{[4-{[2-methyl-7-(morpholin-4-yl)-3-oxo-2,3-dihydro-1H-isoindol-4-yl]amino}-5-(trifluoromethyl)pyrimidin-2-yl]amino}benzyl)phosphonate], the IC50 was < 1000 nM.
Regarding `CCOP(=O)(Cc1ccc(Nc2ncc(C(F)(F)F)c(Nc3ccc(N4CCN(C)CC4)c4c3C(=O)N(C)C4)n2)c(OC)c1)OCC` [Example 224, Diethyl (3-methoxy-4-{[4-{[2-methyl-7-(4-methylpiperazin-1-yl)-3-oxo-2,3-dihydro-1H-isoindol-4-yl]amino}-5-(trifluoromethyl)pyrimidin-2-yl]amino}benzyl)phosphonate], the IC50 was < 1000 nM.
For the molecule `CCOP(=O)(Cc1ccc(Nc2ncc(C(F)(F)F)c(Nc3ccc(N4CCN(CC(=O)OC(C)(C)C)CC4)c4c3C(=O)N(C)C4)n2)cc1)OCC` [Example 225, tert-Butyl [4-(7-{[2-({4-[(diethoxyphosphoryl)methyl]phenyl}amino)-5-(trifluoromethyl)pyrimidin-4-yl]amino}-2-methyl-1-oxo-2,3-dihydro-1H-isoindol-4-yl)piperazin-1-yl]acetate], the IC50 is < 1000 nM.
For the molecule `CCOP(=O)(Cc1ccc(Nc2ncc(C(F)(F)F)c(Nc3ccc(N4CCN(CC(=O)OC(C)(C)C)CC4)c4c3C(=O)N(C)C4)n2)c(OC)c1)OCC` [Example 226, tert-Butyl [4-(7-{[2-({4-[(diethoxyphosphoryl)methyl]-2-methoxyphenyl}amino)-5-(trifluoromethyl)pyrimidin-4-yl]amino}-2-methyl-1-oxo-2,3-dihydro-1H-isoindol-4-yl)piperazin-1-yl]acetate], the IC50 was < 1000 nM.
As for `CCOP(=O)(Cc1ccc(Nc2ncc(C(F)(F)F)c(Nc3ccc(N4CC(O)C4)c4c3C(=O)N(C)C4)n2)cc1)OCC` [Example 227, Diethyl (4-{[4-{[7-(3-hydroxyazetidin-1-yl)-2-methyl-3-oxo-2,3-dihydro-1H-isoindol-4-yl]amino}-5-(trifluoromethyl)pyrimidin-2-yl]amino}benzyl)phosphonate], the IC50 is < 1000 nM.
Take `CCOP(=O)(Cc1ccc(Nc2ncc(C(F)(F)F)c(Nc3ccc([C@H]4CC[C@H](OP(=O)(O)O)CC4)c4c3C(=O)N(C)C4)n2)c(OC)c1)OCC` [Example 228, Diethyl (3-methoxy-4-{[4-({2-methyl-3-oxo-7-[trans-4-(phosphonooxy)cyclohexyl]-2,3-dihydro-1H-isoindol-4-yl}amino)-5-(trifluoromethyl)pyrimidin-2-yl]amino}benzyl)phosphonate]: the IC50 was < 1000 nM.
For the molecule `CCOP(=O)(Cc1ccc(Nc2ncc(C(F)(F)F)c(Nc3ccc(C4=CCNCC4)c4c3C(=O)N(C)C4)n2)cc1)OCC` [Example 246, Diethyl (4-{[4-{[2-methyl-3-oxo-7-(1,2,3,6-tetrahydropyridin-4-yl)-2,3-dihydro-1H-isoindol-4-yl]amino}-5-(trifluoromethyl)pyrimidin-2-yl]amino}benzyl)phosphonate], the IC50 was < 1000 nM.

One may read the IC50 as the concentration at which inhibition is half-maximal. Low values mean greater potency, high ones weaker potency.
